Measurements as given in article PMC6604316 (Virology Journal, 2019).
Where two headings read alike, the source gives them in different places.

Assays:
[1] = system: NA protein of LPAI H7N9 virus, 292 K; conditions: cited from earlier work
[2] = target: NA of A/Texas/12/2007 (H3N2 119E) (Influenza A virus (A/Texas/12/2007(H3N2)), UniProt D1FVK3); assay: biochemical; format: biochemical

For oseltamivir carboxylate, the “fold increase in the IC50” value [1] is listed as “more than 1000 fold” and the IC50 ([2]; read-out: Mean IC50 (nM) ± SD) is listed as 0.12 ± 0.01 nM.
In the case of `CC(=O)N[C@H]1[C@H]([C@H](O)[C@H](O)CO)OC(C(=O)O)=C[C@@H]1N=C(N)N` [Zanamivir, zanamivir], the “fold increase in the IC50” value [1] is given as 67 fold and the IC50 [2] is given as 1.71 ± 0.63 nM.
